Experimental data published in paper PMC9870890 (Nature Communications, 2023).
Changes are numbered by the printed parent chain. Several values for one entry are separate records, joined by “and”; a condition that tells them apart may be missing. Equal values may be shown once.

Tests used:
[1] = target: T1, M2RFL_WT (Homo sapiens, UniProt P08172); experiment: [3H]-NMS competition binding (ACh competition, GoA titration), wild type full length M2R; parameters: unit not given here
T1 construct: made in house; host or cells: Sf9 membranes
T1 sequence (P08172 1-466): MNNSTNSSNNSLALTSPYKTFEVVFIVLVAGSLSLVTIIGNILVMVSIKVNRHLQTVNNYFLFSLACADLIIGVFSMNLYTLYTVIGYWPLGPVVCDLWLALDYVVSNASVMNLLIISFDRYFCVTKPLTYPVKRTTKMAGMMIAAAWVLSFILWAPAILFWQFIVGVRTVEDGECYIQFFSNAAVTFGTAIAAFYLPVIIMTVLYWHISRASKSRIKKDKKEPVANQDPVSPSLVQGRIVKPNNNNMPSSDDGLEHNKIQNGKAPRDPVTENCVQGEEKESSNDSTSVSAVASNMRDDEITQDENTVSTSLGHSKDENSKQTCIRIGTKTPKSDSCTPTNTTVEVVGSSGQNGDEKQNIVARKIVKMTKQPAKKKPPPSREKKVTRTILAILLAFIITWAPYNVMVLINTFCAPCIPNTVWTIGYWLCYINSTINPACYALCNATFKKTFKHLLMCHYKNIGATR
Experimental: Purified M2R receptor was reconstituted into high-density lipoprotein (HDL) particles constituting apolipoprotein A1(APOA1) and mixture of POPG: POPC lipids with 3:2 (mol:mol)ratio as previously described. […] Membranes or HDL particles were separated from excess [^3H]-NMS by Whatman GF/B filters using a Brandel 48-well harvester. The bound radioligand were read on a liquid scintillation counter (MicroBeta Jet, PerkinElmer). Data were analyzed by GraphPad Prism 9.2.0. […]
Data are given as mean
± SEM from 3 independent experiments.
M2RFL△9M_K383M and M2RFL_WT.
SEM from 3 independent experiments. […]

[2] = target: T2, M2R and GoA (Homo sapiens, UniProt P08172); experiment: GTPase-Glo assay (GTP turnover) with purified M2R and GoA; assay type: biochemical; conditions: for Residual GTP (%): 90 min, normalized to GoA alone; for GTP-turnover, Fig. 1c (GTPase-Glo luminescence): 100 μM ACh or 10 μM Ixo, M2R-GoA
T2 construct: FLAG (N); 8xHis (C); made in house; host or cells: Sf9 insect cells (receptor)
T2 sequence (P59768 2-68, one chain of several): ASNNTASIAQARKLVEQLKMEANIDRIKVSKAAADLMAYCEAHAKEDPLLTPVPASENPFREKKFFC
T2 sequence (P09471 2-354, one chain of several, further chain): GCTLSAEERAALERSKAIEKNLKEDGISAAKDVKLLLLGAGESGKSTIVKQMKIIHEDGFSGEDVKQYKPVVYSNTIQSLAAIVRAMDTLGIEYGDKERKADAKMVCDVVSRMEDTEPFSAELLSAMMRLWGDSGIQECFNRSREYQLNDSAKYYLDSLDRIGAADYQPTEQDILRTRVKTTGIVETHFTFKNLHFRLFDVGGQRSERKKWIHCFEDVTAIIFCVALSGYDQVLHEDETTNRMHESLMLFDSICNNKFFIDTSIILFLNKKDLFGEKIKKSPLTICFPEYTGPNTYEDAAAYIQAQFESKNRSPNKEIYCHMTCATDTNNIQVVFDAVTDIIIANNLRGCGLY
T2 sequence (P62873 whole entry, one chain of several, further chain): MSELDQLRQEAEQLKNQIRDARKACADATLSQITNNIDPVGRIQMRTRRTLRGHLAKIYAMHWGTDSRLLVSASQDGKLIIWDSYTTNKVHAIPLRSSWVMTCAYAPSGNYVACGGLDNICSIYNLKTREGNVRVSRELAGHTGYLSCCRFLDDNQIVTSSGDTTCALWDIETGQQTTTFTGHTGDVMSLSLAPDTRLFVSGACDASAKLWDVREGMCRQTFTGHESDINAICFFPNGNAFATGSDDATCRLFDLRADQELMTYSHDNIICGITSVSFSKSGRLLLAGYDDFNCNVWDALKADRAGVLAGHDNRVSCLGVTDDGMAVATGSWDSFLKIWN
Experimental: The receptors for GTPase-Glo^TM assay were expressed and purified as described above and frozen at −80 °C before use. […] The GTPase reaction was incubated at room temperature (22–25 °C) for different times (15–90 min). […] After incubation, 5 μL reconstituted 1xGTPase-Glo^TM Reagent (Promega) was added to the completed GTPase reaction, mixed briefly and incubated with shaking for 30 min at room temperature (22–25 °C) to convert the remaining GTP into ATP. Then 10 μL Detection Reagent (Promega) was added to the system and incubated for 5-10 min at room temperature (22–25 °C) to convert the ATP into luminescent signals. Luminescence intensity was quantified using a Multimode Plate Reader (PerkinElmer) luminescence counter.

[3] = target: T3, human, wild-type M2R (Homo sapiens, UniProt P08172); experiment: NanoBiT-G-protein (GoA) dissociation assay, wild-type M2R, HEK293A cells; assay type: cell-based; conditions: for NanoBiT-GoA dissociation signal, Mean (Veh = 1.000): n = 4
T3 construct: expressed in transfected cells; host or cells: HEK293A
T3 sequence (P08172 1-466): T1 sequence (P08172 1-466)
Experimental: Plasmid transfection for HEK293A cells (Thermo Fisher Scientific) was performed by combining 25 µl (volume is per 10-cm culture dish) of polyethylenimine solution (1 mg/mL) and a mixture of plasmids each encoding the large fragment (LgBiT)-containing the GαoA subunit (500 ng), the small fragment (SmBiT)-fused Gγ2 subunit with the C68S mutation (2.5 µg) and the untagged Gβ1 subunit (2.5 µg), along with a human, wild-type M2R (1 µg; containing N-terminal HA-derived signal sequence followed by the FLAG-epitope tag). After an incubation for one day, the transfected cells were harvested, pelleted with centrifugation, and suspended in 9 ml of Hank’s balanced saline solution (HBSS) containing 0.01% bovine serum albumin (BSA fatty acid–free grade, SERVA) and 5 mM HEPES (pH 7.4) (assay buffer). The cell suspension was dispensed in a white 96-well plate at a volume of 70 µl per well and mixed with 20 µl of 50 µM coelenterazine (Carbosynth) diluted in the assay buffer. After 2 h incubation at room temperature, the plate was measured for baseline luminescence (SpectraMax L, Molecular Devices) and 10 µl of titrated concentrations of LY2119620 diluted in the assay buffer were added. […] Kinetics data points from 5 min to 10 min were averaged and normalized to the initial count and used as a G-protein dissociation index. […] The G-protein dissociation signals were fitted to a four-parameter sigmoidal concentration-response curve (GraphPad Prism8). For each experiment, we calculated Emax by normalizing Span to the LY2119620-free condition and ∆pEC50 by subtracting pEC50 of the LY2119620-free condition performed in parallel and used the values to denote allosteric modulator activity.

[4] = target: T4, M2R L129^34.51A mutant (Homo sapiens, UniProt P08172, L129A); experiment: NanoBiT-GoA dissociation assay, L129A mutant M2R
T4 sequence (P08172 1-466 L129A): T1 sequence (P08172 1-466) with L129A
Experimental: Plasmid transfection for HEK293A cells (Thermo Fisher Scientific) was performed by combining 25 µl (volume is per 10-cm culture dish) of polyethylenimine solution (1 mg/mL) and a mixture of plasmids each encoding the large fragment (LgBiT)-containing the GαoA subunit (500 ng), the small fragment (SmBiT)-fused Gγ2 subunit with the C68S mutation (2.5 µg) and the untagged Gβ1 subunit (2.5 µg), along with a human, wild-type M2R (1 µg; containing N-terminal HA-derived signal sequence followed by the FLAG-epitope tag). After an incubation for one day, the transfected cells were harvested, pelleted with centrifugation, and suspended in 9 ml of Hank’s balanced saline solution (HBSS) containing 0.01% bovine serum albumin (BSA fatty acid–free grade, SERVA) and 5 mM HEPES (pH 7.4) (assay buffer). The cell suspension was dispensed in a white 96-well plate at a volume of 70 µl per well and mixed with 20 µl of 50 µM coelenterazine (Carbosynth) diluted in the assay buffer. […] Kinetics data points from 5 min to 10 min were averaged and normalized to the initial count and used as a G-protein dissociation index. For the mutant study, the cell culture and the transfection mixture were scaled down to a 6-cm dish (4 ml culture media) and the transfected cells were suspended in 4 ml of the assay buffer and seeded in the 96-well plate at a volume of 80 µL. The G-protein dissociation signals were fitted to a four-parameter sigmoidal concentration-response curve (GraphPad Prism8). For each experiment, we calculated Emax by normalizing Span to the LY2119620-free condition and ∆pEC50 by subtracting pEC50 of the LY2119620-free condition performed in parallel and used the values to denote allosteric modulator activity. Similarly, for the mutant study, we calculated ∆pEC50 by subtracting pEC50 of the WT (1:1) condition performed in parallel.

[5] = target: T5, M2R (Homo sapiens, UniProt P08172); experiment: biochemical; assay type: binding; parameters: expressed in transfected cells
T5 sequence (P08172 1-466): T1 sequence (P08172 1-466)
Experimental: Purified M2R receptor was reconstituted into high-density lipoprotein (HDL) particles constituting apolipoprotein A1(APOA1) and mixture of POPG: POPC lipids with 3:2 (mol:mol)ratio as previously described. […] Membranes or HDL particles were separated from excess [^3H]-NMS by Whatman GF/B filters using a Brandel 48-well harvester. The bound radioligand were read on a liquid scintillation counter (MicroBeta Jet, PerkinElmer). Data were analyzed by GraphPad Prism 9.2.0.

[6] = tested on: Mock; experiment: NanoBiT-GoA dissociation assay, Mock-transfected cells (control); assay type: cell-based

CC(=O)OCC[N+](C)(C)C [ACh, acetylcholine]
ACh competition curve data, Supplementary Fig. 4c ([1]; log[M] (ACh) -3): 7.417 and 5.223 and 6.047 | ACh competition curve data, Supplementary Fig. 4c ([1]; log[M] (ACh) -4): 27.7888 and 31.3709 and 30.2311 | ACh competition curve data, Supplementary Fig. 4c ([1]; log[M] (ACh) -5): 61.0434 and 71.3013 and 69.7784 | ACh competition curve data, Supplementary Fig. 4c ([1]; log[M] (ACh) -6): 79.8736 and 96.1082 and 98.1674 | ACh competition curve data, Supplementary Fig. 4c ([1]; log[M] (ACh) -7): 94.365 and 99.8819 and 105.753 | ACh competition curve data, Supplementary Fig. 4c ([1]; log[M] (ACh) -8): 97.3725 and 89.5377 and 100.935 | Residual GTP (%) ([2]; +DMSO): 45.3131% and 35.9349% and 31.3573% and 30.3217% | Residual GTP (%) ([2]; +LY2119620 (100 μM)): 63.4937% and 52.5673% and 44.2408% and 50.614% and 40.1818% | GTP turnover rate and efficacy ([2]; agonist-bound M2R): much lower GTP turnover rate and efficacy than Ixo-bound M2R | GTP-turnover, Fig. 1c (GTPase-Glo luminescence) ([2]; time 15 min): 580068 and 653066 and 555333 and 703107 | GTP-turnover, Fig. 1c (GTPase-Glo luminescence) ([2]; time 30 min): 338018 and 388059 and 371258 and 437553 | GTP-turnover, Fig. 1c (GTPase-Glo luminescence) ([2]; time 45 min): 365372 and 350617 and 319511 and 370440 | GTP-turnover, Fig. 1c (GTPase-Glo luminescence) ([2]; time 60 min): 469821 and 332109 and 488525 and 361230 | GTP-turnover, Fig. 1c (GTPase-Glo luminescence) ([2]; time 90 min): 354237 and 250414 and 339305 and 252170 | ∆pEC50 ([3]; WT (1:1), reference): 0.000 | NanoBiT-GoA dissociation signal, Mean (Veh = 1.000) ([3]; WT (1:1), ACh Log [M] -4): 0.337 | NanoBiT-GoA dissociation signal, Mean (Veh = 1.000) ([3]; WT (1:1), ACh Log [M] -5): 0.351 | NanoBiT-GoA dissociation signal, Mean (Veh = 1.000) ([3]; WT (1:1), ACh Log [M] -6): 0.394 | NanoBiT-GoA dissociation signal, Mean (Veh = 1.000) ([3]; WT (1:1), ACh Log [M] -7): 0.558 | NanoBiT-GoA dissociation signal, Mean (Veh = 1.000) ([3]; WT (1:1), ACh Log [M] -8): 0.840 | NanoBiT-GoA dissociation signal, Mean (Veh = 1.000) ([3]; WT (1:1), ACh Log [M] -9): 0.978 | ∆pEC50 ([3]; WT (1:2)): -0.277 and -0.205 and -0.364 and -0.275 | NanoBiT-GoA dissociation signal, Mean (Veh = 1.000) ([3]; WT (1:2), ACh Log [M] -4): 0.345 | NanoBiT-GoA dissociation signal, Mean (Veh = 1.000) ([3]; WT (1:2), ACh Log [M] -5): 0.355 | NanoBiT-GoA dissociation signal, Mean (Veh = 1.000) ([3]; WT (1:2), ACh Log [M] -6): 0.427 | NanoBiT-GoA dissociation signal, Mean (Veh = 1.000) ([3]; WT (1:2), ACh Log [M] -7): 0.636 | NanoBiT-GoA dissociation signal, Mean (Veh = 1.000) ([3]; WT (1:2), ACh Log [M] -8): 0.898 | NanoBiT-GoA dissociation signal, Mean (Veh = 1.000) ([3]; WT (1:2), ACh Log [M] -9): 0.988 | ∆pEC50 [4]: -0.530 and -0.558 and -0.440 | NanoBiT-GoA dissociation signal, Mean (Veh = 1.000) ([4]; ACh Log [M] -4, n = 3): 0.350 | NanoBiT-GoA dissociation signal, Mean (Veh = 1.000) ([4]; ACh Log [M] -5, n = 3): 0.368 | NanoBiT-GoA dissociation signal, Mean (Veh = 1.000) ([4]; ACh Log [M] -6, n = 3): 0.470 | NanoBiT-GoA dissociation signal, Mean (Veh = 1.000) ([4]; ACh Log [M] -8, n = 3): 0.926 | NanoBiT-GoA dissociation signal, Mean (Veh = 1.000) ([4]; ACh Log [M] -9, n = 3): 0.991 | NanoBiT-GoA dissociation signal, Mean (Veh = 1.000) ([4]; ACh Log [M] -10, n = 3): 0.994 | increase of affinity on addition of GoA ([5]; M2R in HDL particles): ~ 65 fold | competition curve data, Fig. 1b ([3H]-NMS binding) ([5]; log[M] -4, without GoA): 5.782 and 5.65 and 7.077 | competition curve data, Fig. 1b ([3H]-NMS binding) ([5]; log[M] -5, +GoA): 8.6818 and 10.1951 and 7.089 | competition curve data, Fig. 1b ([3H]-NMS binding) ([5]; log[M] -5, without GoA): 30.6813 and 33.2587 and 33.4266 | competition curve data, Fig. 1b ([3H]-NMS binding) ([5]; log[M] -6, +GoA): 19.1734 and 19.6734 and 19.2354 | competition curve data, Fig. 1b ([3H]-NMS binding) ([5]; log[M] -6, without GoA): 75.6364 and 71.4046 | competition curve data, Fig. 1b ([3H]-NMS binding) ([5]; log[M] -7, +GoA): 35.8423 and 48.5862 and 43.4886 | competition curve data, Fig. 1b ([3H]-NMS binding) ([5]; log[M] -7, without GoA): 93.5585 and 94.8412 and 97.6703 | competition curve data, Fig. 1b ([3H]-NMS binding) ([5]; log[M] -8, +GoA): 63.401 and 72.72 and 79.9283 | competition curve data, Fig. 1b ([3H]-NMS binding) ([5]; log[M] -8, without GoA): 87.5165 and 90.6813 and 92.0839 | competition curve data, Fig. 1b ([3H]-NMS binding) ([5]; log[M] -9, +GoA): 85.6233 and 86.2605 and 91.0793 | competition curve data, Fig. 1b ([3H]-NMS binding) ([5]; log[M] -9, without GoA): 98.6534 and 93.3786 and 102.25 | competition curve data, Fig. 1b ([3H]-NMS binding) ([5]; log[M] -10, +GoA): 98.2875 and 107.686 and 94.0263 | competition curve data, Fig. 1b ([3H]-NMS binding) ([5]; log[M] -10, without GoA): 99.5165 and 100.667 and 99.8162 | binding affinity lower than Ixo ([5]; purified M2R reconstituted in HDL particles): ~ 90 fold | NanoBiT-GoA dissociation signal, Mean (Veh = 1.000) ([6]; ACh Log [M] -4, n = 3): 0.999 | NanoBiT-GoA dissociation signal, Mean (Veh = 1.000) ([6]; ACh Log [M] -5, n = 3): 0.997 | NanoBiT-GoA dissociation signal, Mean (Veh = 1.000) ([6]; ACh Log [M] -6, n = 3): 0.997 | NanoBiT-GoA dissociation signal, Mean (Veh = 1.000) ([6]; ACh Log [M] -7, n = 3): 0.998 | NanoBiT-GoA dissociation signal, Mean (Veh = 1.000) ([6]; ACh Log [M] -8, n = 3): 1.007 | NanoBiT-GoA dissociation signal, Mean (Veh = 1.000) ([6]; ACh Log [M] -9, n = 3): 1.008 | NanoBiT-GoA dissociation signal, Mean (Veh = 1.000) ([6]; ACh Log [M] -10, n = 3): 1.011
